One may read the IC50 as the concentration that inhibits the measured activity by half.

SMILES strings stand for the structures. Where a name gives a salt, the structure may show the parent alone.

This assay deals with T1, human factor Xa (Homo sapiens, UniProt P00742).
T1 construct: factor Xa, which is formed from the proenzyme factor X
T1 sequence (P00742 235-488 limits assumed): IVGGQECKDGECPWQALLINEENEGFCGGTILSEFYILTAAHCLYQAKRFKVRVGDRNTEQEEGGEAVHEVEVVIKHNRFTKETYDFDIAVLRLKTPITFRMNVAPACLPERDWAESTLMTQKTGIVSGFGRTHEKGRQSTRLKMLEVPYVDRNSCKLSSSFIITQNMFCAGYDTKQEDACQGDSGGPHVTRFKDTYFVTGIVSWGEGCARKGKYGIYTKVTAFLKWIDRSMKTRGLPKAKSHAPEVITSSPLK
T1 sequence (P00742 41-179 partner limits assumed): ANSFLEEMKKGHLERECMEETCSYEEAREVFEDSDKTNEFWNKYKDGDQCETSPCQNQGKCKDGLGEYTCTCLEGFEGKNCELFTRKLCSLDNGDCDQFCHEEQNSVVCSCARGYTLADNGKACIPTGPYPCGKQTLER
Briefly: Determination of the factor Xa inhibition (fluorogenic substrate Boc-Ile-Glu-Gly-Arg-AMC). In kind it is biochemical. As to conditions: human factor Xa 1.3 nmol/l, 15 min preincubation at 22° C., substrate 5 μmol/l, pH 7.4. As to the method:
• a.1) Determination of the Factor Xa Inhibition
In order to determine the factor Xa inhibition of the substances listed above, a biochemical test system is set up, in which the conversion of a factor Xa substrate is used to determine the enzymatic activity of human factor Xa. Here Factor Xa cleaves aminomethylcoumarin, whose fluorescence is measured, from the peptidic substrate. The determinations are carried out in microtitre plates.
Substances to be tested, in various concentrations, are dissolved in dimethyl sulphoxide and incubated for 15 min at 22° C. with human factor Xa (1.3 nmol/l dissolved in 50 mmol/l of Tris buffer [C,C,C-tris(hydroxymethyl)aminomethane], 100 mmol/l NaCl, 0.1% BSA [bovine serum albumin], pH 7.4). The substrate (5 μmol/l of Boc-Ile-Glu-Gly-Arg-AMC from Bachem) is then added. After an incubation time of 30 min, the sample is excited at a wavelength of 360 nm, and the emission at 460 nm is measured. The measured emissions of the test batches with test substance are compared to the control batches without test substance (only dimethyl sulphoxide instead of test substance in dimethyl sulphoxide), and IC50 values are calculated from the concentration/activity relationships.
The molecule `O=C(NCc1cn(-c2ccc(N3CCOCC3=O)cc2)nc1-c1ccccc1)c1ccc(Cl)s1` [Example 1, 5-Chloro-N-({1-[4-(3-oxomorpholin-4-yl)phenyl]-3-phenyl-1H-pyrazol-4-yl}methyl)thiophene-2-carboxamide] gave an IC50 of 0.7 nM.

The molecule `Cc1cc(-n2cc(CNC(=O)c3ccc(Cl)s3)c(-c3ccccc3)n2)ccc1N1CCOCC1=O` [Example 2, 5-Chloro-N-({1-[3-methyl-4-(3-oxomorpholin-4-yl)phenyl]-3-phenyl-1H-pyrazol-4-yl}methyl)-thiophene-2-carboxamide] yielded an IC50 of 0.7 nM. Take `O=C(NCc1cn(-c2ccc(N3CCOCC3=O)cc2)nc1-c1cccnc1)c1ccc(Cl)s1` [Example 3, 5-Chloro-N-({1-[4-(3-oxomorpholin-4-yl)phenyl]-3-pyridin-3-yl-1H-pyrazol-4-yl}methyl)thiophene-2-carboxamide hydrochloride]: half-maximal inhibition (IC50) was put at 0.8 nM.

These data come from patent publication US8263624B2, “Aryl-substituted heterocycles, and use thereof” (Bayer Intellectual Property GmbH, priority 2006, dated 2012).
